The text below walks through data of US6342079B1, “Primary intermediate for use in oxidative hair dyeing” (Bristol-Myers Squibb Company, priority 2000, dated 2002).

A short description of series [1]: Storage stability of the free base. The series is classed as physicochemical. Particulars: for long term storage stability: extended storage.
Series [2] in a line: Solubility in water. The series is classed as physicochemical.
The nature of series [3]: Sensitization potential.
For series [4] the following is noted: as described in U.S. Pat. Nos. 5,599,353 and 5,538,516; cited from earlier work.

As to `CC(O)c1cc(N)ccc1N` (stereo not drawn) [1-(2,5-Diaminophenyl)ethanol, 1-(2,5-diaminophenyl)ethanol], in series [1], the “stability in free base form compared with 2-(2-hydroxyethyl)-p-phenylenediamine” value was “significantly more stable” and the “long term storage stability” value is “excellent”. Further, the solubility in water entry in series [2] is “excellent”. Further, in series [3], the “sensitization potential compared with p-phenylenediamine” value is on record as “much less susceptible to cause sensitization”.

For `Nc1ccc(N)c(CCO)c1` [2-(2-hydroxyethyl)-p-phenylenediamine, reference compound], the “long term storage stability” value in series [1] was “not sufficiently stable”.

With `Nc1ccc(N)cc1` [p-phenylenediamine], the sensitization potential entry in series [4] is “strong”.
